Measurements as given in patent US10124008B2, “Use of inhibitors of acid sphingomyelinase to treat acquired and inherited retinal degenerations” (Wisconsin Alumni Research Foundation, priority 2014, dated 2018).

How the values were obtained:
MHC-II in RPE = experiment: Quantification of MHC-II staining; assay type: cell-based; settings: RPE with A2E
[1] = test system: LC3B-II and p62 in primary RPE monolayers; experiment: Immunoblotting of LC3B-II and p62 in polarized primary RPE monolayers; assay type: cell-based, porcine; settings: A2E-laden RPE after mTOR inhibition; TO901317 1 μM 20 h, desipramine 10 μM 3 h
Experimental: RPE harvested from mouse eyecups were sonicated in lysis buffer with protease inhibitors for 10 min. Primary RPE on TRANSWELL filters were harvested and lysed with NE-PER nuclear and cytoplasmic extraction reagents (Thermo Scientific #78833) according to the manufacturer's recommendation. Protein concentrations were measured with DC assay (BioRad). […] Proteins were then transferred onto nitrocellulose membrane using IBLOT dry transfer system (INVITROGEN), blocked in 5% milk in TBS-T for 1 hour before incubating in primary antibody overnight at 4° C. Membranes were probed with antibodies to LC3B (1:3000, Novus NB600-1384 for pig and 1:500, Sigma L7543 for mouse), p62/SQSTM1 (1:1000, ARP03-GP62-C) and actin (1:5000, Santa Cruz) followed by horseradish peroxidase-conjugated secondary antibodies. Immunoblots were visualized by ECL substrate (Thermo Scientific) and quantified using Image Studio (LI-COR). […] Other drugs used were the mTOR inhibitors Torin 1 and Torin 2 (50 nM and 1.5 μM, respectively, for 2 h, TOCRIS), the vacuolar ATPase inhibitor bafilomycin A1 (100 nM for 2 h, EMD Millipore), the LXRα agonist TO901317 (1 μM for 20 h, Cayman Chemicals), the HDAC6 inhibitor trichostatin A (TSA, 500 nM, 16 h, Sigma) and the ASMase inhibitor desipramine (10 μM for 3 h, Sigma). To depolymerize MTs, cells were treated with 33 μM nocodazole for 30 minutes, followed by cold-treatment (4° C.) for 30 minutes (Kreitzer et al., 2003). At the concentrations and exposure times used, none of these drugs caused alterations in RPE cell morphology or physiology (monitored by TER measurements, ZO-1 and organelle marker staining). […] Conversion of LC3B-I to its lipidated form (LC3B-II) is an indicator of autophagosome biogenesis and p62 levels are a measure of autophagic flux (Klionsky et al., 2012).

primary RPE monolayers [2] = experiment: Reactive oxygen species assay (CELLROX) after 10% NHS; assay type: cell-based, porcine; settings: RPE with A2E, short treatment with desipramine
Experimental: Reactive oxygen species (ROS) generation was measured using […] Deep Red (Molecular Probes, #10422) according to manufacturer's recommendation. After 10% NHS treatment, medium containing NHS was removed and cells were rinsed with HBSS before incubation in 5 μM […] reagent at 37° C. for 30 min. Cells were rinsed 3 times with PBS and fluorescence was read with microplate reader at Ex/Em of 640/665. For normalization purposes, cells were fixed, stained with DAPI, and fluorescence was read at Ex/Em: 360/460.

primary RPE monolayers [3] = experiment: Lysosome exocytosis (surface LAMP2) after 10% normal human serum; assay type: cell-based, porcine; settings: RPE with A2E, complement attack; short treatment with desipramine
Experimental: Cells were rinsed in recording medium (HBSS with 4.5 g/L glucose, 20 mM HEPES) and incubated with ionomycin or […] normal human serum (Quidel) for 10 min at 37° C. Filters were immediately transferred to ice and analyzed for surface LAMP2 or β-hex activity (see below).
Cells were stained with mouse monoclonal antibody to the lumenal domain of Lamp2 (Serotec, MCA2558, 1:500) (48) or C5b-9 (Novus, NBP1-05120, 1:100) at 4° C. for 30 min. The antibody was diluted in PBS supplemented with Ca^2+ and Mg^2++1% BSA. Cells were then fixed with 2% PFA for 5 min on ice, permeabilized, and stained for ZO-1 as detailed above. Alexa-conjugated secondary antibodies (INVITROGEN) were used at 1:500 for 30 min. Cells were imaged by confocal microscopy (Andor Revolution XD) using a 60× 1.4 NA oil objective. For each set of experiments, the laser power, voltage and offset were identical for a given fluorophore. Quantification of Lamp2 staining was performed by obtaining the total fluorescence using the surface tool in Imaris (Bitplane).

## CNCCCN1c2ccccc2CCc2ccccc21 [desipramine]
MHC-II in RPE
  MHC-II protein levels: decreased MHC-II protein levels
[1]
  LC3B-II levels / autophagosome biogenesis (immunoblot): increased LC3B-II levels in RPE with A2E comparable to those in control cells
  p62 levels / autophagic flux (immunoblot): decreased p62 levels in cells with A2E
Primary RPE monolayers [2]
  ROS levels after complement attack: decreased ROS levels after complement attack
Primary RPE monolayers [2]; listed as Desipramine
  ROS levels after complement attack: prevented mitochondrial oxidative damage after complement attack
Primary RPE monolayers [3]
  lysosome exocytosis: restored lysosome exocytosis
